Where a name gives a salt, the structure may show the parent alone.
Biological target: MASP-2 CCP2-SP (Homo sapiens (Human), UniProt O00187)
Assay: MASP-2 co-crystallization, X-ray crystallography and structure analysis (H-bonds, van der Waals contacts);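 for Ligand-pharmacophore element distance, pharmacophore element C2: distance from averaged pharmacophore element to bound ligand; missing value means element absent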;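 for Ligand-pharmacophore element distance, pharmacophore element C3: distance from averaged pharmacophore element to bound ligand; missing value means element absent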;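 for Ligand-pharmacophore element distance, pharmacophore element C4: distance from averaged pharmacophore element to bound ligand; missing value means element absent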;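 for Ligand-pharmacophore element distance, pharmacophore element C5: distance from averaged pharmacophore element to bound ligand; missing value means element absent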
Set-up: van der Waals contact distance, MASP-2 HIS 483 atom CD2 / van der Waals contact distance, MASP-2 HIS 483 atom NE2 / van der Waals contact distance, SER 654 C to compound atom / van der Waals contact distance, SER 654 O to compound atom / van der Waals contact distance, TRP 655 C to compound atom / van der Waals contact distance, MASP-2 GLY 528 atom CA / van der Waals contact distance TRP 655 atom CZ3 / van der Waals contact distance TRP 655 atom N / van der Waals contact distance TRP 655 atom CE3 / van der Waals contact distance GLY 656 atom C / van der Waals contact distance GLY 656 atom CA / van der Waals contact distance GLY 656 atom O / van der Waals contact distance, MASP-2 TYR 607 atom CD1 / van der Waals contact distance, MASP-2 PRO 606 atom O / d(C3,CA1) / d(CA1,N1)2 / d(H4,O1) / d(H4,O2) / d(O1,O2) / d(CA1,O2) / d(CA6,O1) / d(CA6,O2) / d(CA1,C5) / d(O2,H3) / d(N2,C2) / d(CA5,N2) / d(N2,C4) / d(N2,C6) / d(N2,CA3) / d(N2,O3) / d(O4,H2): unit not given beside the values
Settings: for H-bond distance to MASP-2 ASP 627 atom OD2 / H-bond distance to MASP-2 GLY 656 atom N / H-bond distance to MASP-2 GLY 656 atom O / H-bond distance to MASP-2 SER 628 atom O / H-bond distance to MASP-2 SER 654 atom O / H-bond distance to MASP-2 SER 657 atom O: Table A1 (H-Bonds); for H-bond distance to MASP-2 ASP 627 atom OD2: ASP 627 OD2; for H-bond distance to MASP-2 GLY 656 atom N: GLY 656 N; for H-bond distance to MASP-2 GLY 656 atom O: GLY 656 O; for H-bond distance to MASP-2 SER 628 atom O: SER 628 O; for H-bond distance to MASP-2 SER 654 atom O: SER 654 O; for H-bond distance to MASP-2 SER 657 atom O: SER 657 O; for van der Waals contact distance, MASP-2 HIS 483 atom CD2 / van der Waals contact distance, MASP-2 HIS 483 atom NE2: Table A2-1; for van der Waals contact distance, MASP-2 GLY 528 atom CA: Table A2-2; for van der Waals contact distance, VAL 653 CG1 to compound atom: Table A2-11; for van der Waals contact distance TRP 655 atom CE3: MASP-2 TRP 655 CE3, compound atom in line below
In short: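 First, CCP2-SP constructs with or without a 6His tag are produced in E. coli. Crystals are then soaked once or twice with inhibitor, cryoprotected in 20% glycerol or frozen directly, and diffracted at synchrotron beamlines. Phasing uses molecular replacement with parts of 1Q3X.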

[1] = Table A5-1 pharmacophore: distance between elements, S2/S1 region
[2] = Table A5-2 pharmacophore distance, S3/S4 region
[3] = Table A7-1, between pharmacophore elements of the bound compound
[4] = Table A7-2, between pharmacophore elements of the bound compound

Chain of MASP-2 CCP2-SP (O00187 445-686): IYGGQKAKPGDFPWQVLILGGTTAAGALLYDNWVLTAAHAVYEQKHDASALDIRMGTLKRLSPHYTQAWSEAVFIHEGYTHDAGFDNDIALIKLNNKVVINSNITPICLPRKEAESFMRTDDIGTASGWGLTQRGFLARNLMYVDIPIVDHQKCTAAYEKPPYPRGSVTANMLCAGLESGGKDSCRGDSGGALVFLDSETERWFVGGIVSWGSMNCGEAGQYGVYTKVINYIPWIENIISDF
Chain of MASP-2 CCP2-SP (O00187 364-432 partner): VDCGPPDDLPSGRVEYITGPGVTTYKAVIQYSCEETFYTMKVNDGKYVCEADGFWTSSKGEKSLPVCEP

For `Cc1nc(N)ccc1CNC(=O)[C@H](C)NC(=O)[C@H]1C[C@@H](c2cccc3ccccc23)CCN1` [compound 1297, (2R,4S)—N—((S)-1-(((6-Amino-2-methylpyridin-3-yl)methyl)amino)-1-oxopropan-2-yl)-4-(naphthalen-1-yl)piperidine-2-carboxamide], the “H-bond distance to MASP-2 ASP 627 atom OD2” value was 3.13, the “H-bond distance to MASP-2 GLY 656 atom N” value was 3.33 and the “H-bond distance to MASP-2 GLY 656 atom O” value was 2.67. The “H-bond distance to MASP-2 SER 628 atom O” value was 2.96, the “H-bond distance to MASP-2 SER 654 atom O” value was 2.88 and the “H-bond distance to MASP-2 SER 657 atom O” value was 3.06. The “van der Waals contact distance, MASP-2 HIS 483 atom CD2” value was 3.74, the “van der Waals contact distance, MASP-2 HIS 483 atom NE2” value was 3.84 and the “van der Waals contact distance, MASP-2 GLY 528 atom CA” value was 3.76. The “van der Waals contact distance, MASP-2 TYR 607 atom CD1” value (Table A2-4) was 3.81, the “van der Waals contact distance, MASP-2 amino acid atom to compound atom” value (Table A2-9, ARG 630, AA atoms CG, CZ) was 3.47 and the “van der Waals contact distance, VAL 653 CG1 to compound atom” value was 3.22. The “van der Waals contact distance, SER 654 O to compound atom” value (Table A2-12) was 3.51, the “van der Waals contact distance, TRP 655 C to compound atom” value (Table A2-12) was 3.89 and the “van der Waals contact distance, TRP 655 CA to compound atom” value (Table A2-12) was 3.49. For the same molecule, the “van der Waals contact distance TRP 655 atom CE3” value (Table A2-13) was 3.54.

In the case of `Cc1nc(N)ccc1CNC(=O)[C@H](C)NC(=O)[C@H]1C[C@H](Cc2ccccc2-c2ccccc2)CN1` [compound 1373, (2R,4S)-4-([1,1′-Biphenyl]-2-ylmethyl)-N—((S)-1-(((6-amino-2-methylpyridin-3-yl)methyl)amino)-1-oxopropan-2-yl)pyrrolidine-2-carboxamide Di-trifluoroacetate salt], the “H-bond distance to MASP-2 ASP 627 atom OD2” value is reported as 3.21, the “H-bond distance to MASP-2 GLY 656 atom N” value is reported as 3.2 and the “H-bond distance to MASP-2 GLY 656 atom O” value is reported as 2.76. For the same molecule, the “H-bond distance to MASP-2 SER 628 atom O” value was 3.18, the “H-bond distance to MASP-2 SER 654 atom O” value was 3.04 and the “H-bond distance to MASP-2 SER 657 atom O” value was 2.89. For the same molecule, the “van der Waals contact distance, MASP-2 HIS 483 atom CD2” value was 3.71, the “van der Waals contact distance, MASP-2 HIS 483 atom NE2” value was 3.62 and the “van der Waals contact distance, MASP-2 GLY 528 atom CA” value was 3.79. For the same molecule, the “van der Waals contact distance, MASP-2 amino acid atom to compound atom” value (Table A2-7: SER 628 (CB, O, OG)) was 3.64, the “van der Waals contact distance, VAL 653 CG1 to compound atom” value was 3.34 and the “van der Waals contact distance, SER 654 O to compound atom” value (Table A2-12) was 3.83. For the same molecule, the “van der Waals contact distance, TRP 655 CA to compound atom” value (Table A2-12) was 3.44, the “van der Waals contact distance TRP 655 atom CE3” value (Table A2-13) was 3.65 and the “van der Waals contact distance TRP 655 atom CZ3” value (Table A2-13, MASP-2 TRP 655 CZ3) was 3.57. For the same molecule, the “van der Waals contact distance, MASP-2 amino acid atom to compound atom” value (Table A2 section before Table A2-8) was 3.83, the “Ligand-pharmacophore element distance, pharmacophore element C2” value (Table A4-1, element C2) was 0 and the “Ligand-pharmacophore element distance, pharmacophore element C3” value (Table A4-1, element C3) was 0.08. The “Ligand-pharmacophore element distance, pharmacophore element C4” value (Table A4-1, element C4) was 0, the “Ligand-pharmacophore element distance, pharmacophore element C5” value (Table A4-1, element C5) was 0 and the “Ligand-pharmacophore element distance, pharmacophore element C6” value (Table A4-1, element C6) was 0. The “Ligand-pharmacophore element distance, pharmacophore element C7” value (Table A4-1, element C7) was 0, the “Ligand-pharmacophore element distance, pharmacophore element CA1” value (Table A4-1, element CA1) was 0.56 and the “Ligand-pharmacophore element distance, pharmacophore element CA2” value (Table A4-1, element CA2) was 0.54. For the same molecule, the “Ligand-pharmacophore element distance, pharmacophore element CA3” value (Table A4-1, element CA3) was 0, the “Ligand-pharmacophore element distance, pharmacophore element CA4” value (Table A4-1, element CA4) was 0 and the “Ligand-pharmacophore element distance, pharmacophore element CA5” value (Table A4-1, element CA5) was 2.5. The “Ligand-pharmacophore element distance, pharmacophore element CA6” value (Table A4-1, element CA6) was 0, the “d(C3,CA1)” value [1] was 2.85 and the “d(CA1,N1)2” value [1] was 1.37. The “d(CA1,O1)” value [1] was 4.41, the “d(CA1,O2)” value [1] was 3.86 and the “d(H4,O1)” value [1] was 4.40. For the same molecule, the “d(H4,O2)” value [1] was 3.78, the “d(O1,O2)” value [1] was 3.38 and the “d(CA5,N2)” value [2] was 6.60. For the same molecule, the “d(N2,CA2)” value [2] was 6.03, the “d(O2,H3)” value [2] was 4.31 and the “d(O2,N2)” value [2] was 2.65. For the same molecule, the “a(C3, CA1, O1)” value (Table A6-1 pharmacophore angle) was 149.81, the “a(CA1, O1, O2)” value (Table A6-1 pharmacophore angle) was 105.28 and the “a(O1, O2, H4)” value (Table A6-1 pharmacophore angle) was 131.90. For the same molecule, the “a(N1, CA1, O1) b)” value (Table A6-1 pharmacophore angle, Methyl-amino-pyridine compounds) was 174.08, the “a(O1, O2, H3)” value (Table A6-2 pharmacophore angle) was 147.32 and the “a(O1, O2, N2)” value (Table A6-2 pharmacophore angle) was 141.07. The “a(O2, N2, CA2)” value (Table A6-2 pharmacophore angle) was 156.78, the “Pharmacophore torsion angle a(C3, CA1, O1, H4)” value [3] was 25.67 and the “Pharmacophore torsion angle a(H4, O1, O2, H3)” value [3] was 50.98. The “Pharmacophore torsion angle a(H4, O1, O2, N2)” value [3] was 139.02, the “Pharmacophore torsion angle a(N1, CA1, O1, H4)” value [3] was 4.28 and the “Pharmacophore torsion angle a(O1, H4, O2, CA1)” value [3] was −84.42. The “Pharmacophore torsion angle a(O1, O2, N2, CA2)” value [4] was 127.58 and the “Pharmacophore torsion angle a(O1, O2, N2, CA5)” value [4] was 91.76.

From patent publication US12195427B2, “MASP-2 inhibitors and methods of use” (priority 2018, dated 2025)
